According to US10065990B2, “Cyclic peptide compound, and preparation method, pharmaceutical composition and use thereof” (HANGZHOU GUANYU BIO-MEDICAL CO., LTD, priority 2013, dated 2018):
Read-outs that look alike come from different tables or passages of the source.

Columns and labels:
HDAC7 = biological target: T1, HDAC7 (Homo sapiens, UniProt Q8WUI4); assay: HDAC biochemical activity measurement (fluorescent substrate deacetylation);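 note: fluorogenic deacetylation assay using acetyl-lysine substrate at 20 µM, enzyme and compound incubated 30 min at 37 °C, then developer added, fluorescence read at 360/460 nm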; details: HDAC7; 37° C. 30 minutes
T1 sequence (Q8WUI4 1-952): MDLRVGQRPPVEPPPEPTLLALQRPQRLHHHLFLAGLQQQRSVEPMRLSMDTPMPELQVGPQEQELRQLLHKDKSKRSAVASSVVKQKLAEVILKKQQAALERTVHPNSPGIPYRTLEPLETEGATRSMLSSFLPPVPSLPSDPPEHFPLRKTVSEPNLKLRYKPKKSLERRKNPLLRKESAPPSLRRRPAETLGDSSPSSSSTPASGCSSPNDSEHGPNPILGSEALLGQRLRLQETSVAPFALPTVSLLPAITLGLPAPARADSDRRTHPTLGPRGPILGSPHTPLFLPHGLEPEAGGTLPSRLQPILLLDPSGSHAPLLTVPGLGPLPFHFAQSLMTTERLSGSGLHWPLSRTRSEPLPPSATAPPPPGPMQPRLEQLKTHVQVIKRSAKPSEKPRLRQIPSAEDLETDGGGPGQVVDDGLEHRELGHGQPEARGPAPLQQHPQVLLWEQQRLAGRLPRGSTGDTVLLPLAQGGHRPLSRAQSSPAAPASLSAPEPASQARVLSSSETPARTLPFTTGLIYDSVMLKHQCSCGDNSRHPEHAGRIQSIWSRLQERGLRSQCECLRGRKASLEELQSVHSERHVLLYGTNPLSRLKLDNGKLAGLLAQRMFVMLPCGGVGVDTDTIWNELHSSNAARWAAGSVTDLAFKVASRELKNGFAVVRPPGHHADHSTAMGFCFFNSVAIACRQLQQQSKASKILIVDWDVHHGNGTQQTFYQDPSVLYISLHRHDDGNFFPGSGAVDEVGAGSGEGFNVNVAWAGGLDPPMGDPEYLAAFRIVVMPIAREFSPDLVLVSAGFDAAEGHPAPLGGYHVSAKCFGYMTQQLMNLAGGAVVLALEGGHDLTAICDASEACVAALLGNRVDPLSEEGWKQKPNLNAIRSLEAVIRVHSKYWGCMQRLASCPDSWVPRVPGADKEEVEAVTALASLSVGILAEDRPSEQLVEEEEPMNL

[1] = test system: lncap (prostate cancer cells); assay: MTT cancer cell growth inhibition; type: cell-based; details: MTT, 72 hours incubation, read-out: GI50 lnca
In short: (§1)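 Three-day compound exposure (final 10^−5–10^−10 M, three replicate wells) of cells seeded at 1500 per well precedes a 4 h MTT incubation at 37° C. Viability is taken from 570 nm absorbance after DMSO solubilisation, and GI50 calculated from it.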

[2] = test system: N-87 (human gastric cancer cells); assay: MTT cancer cell growth inhibition; type: cell-based; details: Homo sapiens, 72 h, MTT, 72 hours incubation, N-87 cells; read-out: GI50 N-87
In short: as §1

[3] = test system: U937 (human leukemia cells); assay: MTT cancer cell growth inhibition; type: cell-based; details: Homo sapiens, U-937, 72 h, MTT, 72 hours incubation, read-out: GI50 U93
In short: as §1

[4] = test system: MDA-MB-231 (breast cancer cells); assay: MTT cancer cell growth inhibition; type: cell-based
In short: as §1

[5] = test system: HT1080 (human fibrosarcoma cells); assay: MTT cancer cell growth inhibition; type: cell-based; details: MTT, 72 hours incubation, read-out: GI50 HT1
In short: as §1

[6] = test system: MOLT-4 (human acute lymphoblastic leukemia cells); assay: MTT cancer cell growth inhibition; type: cell-based; details: MTT, 72 hours incubation, read-out: GI50 Mol
In short: as §1

[7] = test system: SGC-7901 (human gastric cancer cells); assay: MTT cancer cell growth inhibition; type: cell-based; details: MTT, 72 hours incubation, SGC-7901 cells, read-out: GI50 SGC-7901
In short: as §1

[8] = test system: Bel-7402 (human hepatoma cells); assay: MTT cancer cell growth inhibition; type: cell-based; details: MTT, 72 hours incubation, Bel-7402 cells, read-out: GI50 Bel-7402
In short: as §1

[9] = test system: HCC827 (human non-small cell lung cancer cells); assay: MTT cancer cell growth inhibition; type: cell-based; details: MTT, 72 hours incubation, HCC827 cells, read-out: GI50 HCC827
In short: as §1

[10] = test system: H1975 (non-small cell lung adenocarcinoma); assay: MTT cancer cell growth inhibition; type: cell-based; details: MTT, 72 hours incubation, H1975 cells, read-out: GI50 H1975
In short: as §1

[11] = test system: Hela (human cervical cancer cells); assay: MTT cancer cell growth inhibition; type: cell-based; details: MTT, 72 hours incubation, read-out: GI50 Hela
In short: as §1

[12] = test system: Huh-7 (human hepatoma cells); assay: MTT cancer cell growth inhibition; type: cell-based; details: Homo sapiens, Huh-7, 72 h, MTT, 72 hours incubation, Huh-7 cells; read-out: GI50 Huh-7
In short: as §1

[13] = test system: K562 (human leukemia cells); assay: MTT cancer cell growth inhibition; type: cell-based; details: Homo sapiens, K562, 72 h, MTT, 72 hours incubation, K562 cells; read-out: GI50 K562
In short: as §1

[14] = test system: BGC-823 (human gastric cancer cells); assay: MTT cancer cell growth inhibition; type: cell-based; details: Homo sapiens, BGC-823, 72 h, MTT, 72 hours incubation, read-out: GI50 BG
In short: as §1

[15] = test system: A549 (human lung cancer cells); assay: MTT cancer cell growth inhibition; type: cell-based; details: Homo sapiens, A549, 72 h, MTT, 72 hours incubation, read-out: GI50 A54
In short: as §1

[16] = test system: KBM5-T315I (human chronic myelogenous leukemia); assay: MTT cancer cell growth inhibition; type: cell-based; details: Homo sapiens, 72 h, MTT, 72 hours incubation, KBM5-T315I cells; read-out: GI50 KBM5-T315I
In short: as §1

[17] = test system: KBM-5 (human chronic myelogenous leukemia); assay: MTT cancer cell growth inhibition; type: cell-based; details: MTT, 72 hours incubation, KBM-5 cells, read-out: GI50 KBM-5
In short: as §1

[18] = test system: DU145 (human prostate cancer cells); assay: MTT cancer cell growth inhibition; type: cell-based; details: Homo sapiens, DU-145, 72 h, MTT, 72 hours incubation, read-out: GI50 Du1
In short: as §1

[19] = test system: MCF-7 (human breast cancer cells); assay: MTT cancer cell growth inhibition; type: cell-based; details: Homo sapiens, MCF7, 72 h, 72 hours incubation, read-out: GI50 MCF
In short: as §1

[20] = test system: PANC-1 (Pac-1, human pancreatic cancer cells); assay: MTT cancer cell growth inhibition; type: cell-based; details: MTT, 72 hours incubation, read-out: GI50 PAN
In short: as §1

[21] = Homo sapiens, MDA-MB-231, 72 h, read-out: GI50 MDA-MB-231, MTT, 72 hours incubation, MDA-MB-231 cells

SMILES	IC50 HDAC7 (HDAC7)	GI50 ([1]; Homo sapiens, LNCaP, 72 h)	GI50 [2]	GI50 [3]	GI50 [4, 21]	GI50 ([5]; Homo sapiens, HT-1080, 72 h)	GI50 ([6]; Homo sapiens, MOLT-4, 72 h)	GI50 ([7]; Homo sapiens, SGC-7901, 72 h)	GI50 ([8]; Homo sapiens, Bel-7402, 72 h)	GI50 ([9]; Homo sapiens, HCC827, 72 h)	GI50 ([10]; Homo sapiens, NCI-H1975, 72 h)	GI50 ([11]; Homo sapiens, HeLa, 72 h)	GI50 [12]	GI50 [13]	GI50 [14]	GI50 [15]	GI50 [16]	GI50 ([17]; Homo sapiens, KBM5, 72 h)	GI50 [18]	GI50 [19]	further results
C/C=C1\NC(=O)c2ccc(F)c(n2)CNC(=O)C[C@@H](/C=C/CCSC(C)=O)OC(=O)[C@H](CC)NC1=O [Example 59]	no activity	30 nM	59 nM	30 nM	37 nM	80 nM	30 nM	59 nM	82 nM	82 nM	39 nM	60 nM	37 nM	38 nM	50 nM	50 nM	74 nM	61 nM	30 nM	70 nM	GI50 ([20]; Homo sapiens, PANC-1, 72 h): 80 nM
C/C=C1\NC(=O)c2ccc(SC)c(n2)CNC(=O)C[C@@H](/C=C/CCSC=O)OC(=O)[C@H](C(C)C)NC1=O [Compound 170]	no activity		62 nM		38 nM			37 nM	43 nM	96 nM	26 nM		88 nM	37 nM			57 nM	49 nM			GI50 ([1]; Homo sapiens, LNCaP, 72 h, lncap cells): 70 nM; GI50 ([3]; U937 cells): 90 nM; GI50 ([5]; Homo sapiens, HT-1080, 72 h, HT1080 cells): 50 nM; GI50 ([6]; Homo sapiens, MOLT-4, 72 h, MOLT-4 cells): 30 nM; GI50 ([11]; Homo sapiens, HeLa, 72 h, Hela cells): 30 nM; GI50 ([14]; BGC-823 cells): 20 nM; GI50 ([15]; A549 cells): 60 nM; GI50 ([18]; DU145 cells): 20 nM; GI50 ([19]; MCF-7 cells): 60 nM; GI50 ([20]; Homo sapiens, PANC-1, 72 h, PANC-1 cells): 50 nM
C/C=C1\NC(=O)c2nc(ccc2F)CNC(=O)C[C@@H](/C=C/CCSC(C)=O)OC(=O)[C@@H](C)NC1=O [Compound 100]	no activity	30 nM	32 nM	60 nM	78 nM	90 nM	30 nM	57 nM	71 nM	17 nM	53 nM	70 nM	27 nM	34 nM	20 nM	50 nM	31 nM	35 nM	20 nM	20 nM	GI50 ([20]; Homo sapiens, PANC-1, 72 h): 90 nM

Continued, in another order:

IC50 HDAC7 (HDAC7)	GI50 ([1]; Homo sapiens, LNCaP, 72 h)	GI50 [2]	GI50 [3]	GI50 [4, 21]	GI50 ([5]; Homo sapiens, HT-1080, 72 h)	GI50 ([6]; Homo sapiens, MOLT-4, 72 h)	GI50 ([7]; Homo sapiens, SGC-7901, 72 h)	GI50 ([8]; Homo sapiens, Bel-7402, 72 h)	GI50 ([9]; Homo sapiens, HCC827, 72 h)	GI50 ([10]; Homo sapiens, NCI-H1975, 72 h)	GI50 ([11]; Homo sapiens, HeLa, 72 h)	GI50 [12]	GI50 [13]	GI50 [14]	GI50 [15]	GI50 [16]	GI50 ([17]; Homo sapiens, KBM5, 72 h)	GI50 [18]	GI50 [19]	SMILES	further results
no activity	30 nM	35 nM	30 nM	27 nM	80 nM	30 nM	27 nM	53 nM	13 nM	57 nM	60 nM	24 nM	38 nM	30 nM	40 nM	41 nM	72 nM	30 nM	30 nM	C/C=C1\NC(=O)c2cc(F)cc(n2)CNC(=O)C[C@@H](/C=C/CCS)OC(=O)[C@H](C(C)C)NC1=O [Compound 107]	GI50 ([20]; Homo sapiens, PANC-1, 72 h): 80 nM
no activity	10 nM	52 nM	40 nM	19 nM	50 nM	10 nM	77 nM	57 nM	57 nM	42 nM	90 nM	19 nM	27 nM	50 nM	70 nM	63 nM	92 nM	20 nM	60 nM	C/C=C1\NC(=O)c2cc(F)cc(n2)CNC(=O)C[C@@H](/C=C/CCSC(=O)CCCCCCC)OC(=O)[C@H](C(C)C)NC1=O [Example 31]	GI50 ([20]; Homo sapiens, PANC-1, 72 h): 50 nM
no activity		42 nM										29 nM	45 nM			33 nM				C/C=C1\NC(=O)c2ccc(SC)c(n2)CNC(=O)C[C@@H](/C=C/CCSC(C)=O)OC(=O)[C@H](C(C)C)NC1=O [Compound 167]	GI50 ([1]; lncap cells): 60 nM; GI50 ([3]; U937 cells): 20 nM; GI50 ([4]; read-out: GI50 MDA-MB-231, MTT, 72 hours incubation, MDA-MB-231 cells): 91 nM; GI50 ([5]; HT1080 cells): 100 nM; GI50 ([6]; MOLT-4 cells): 20 nM; GI50 [7]: 97 nM; GI50 [8]: 75 nM; GI50 [9]: 28 nM; GI50 [10]: 43 nM; GI50 ([11]; Hela cells): 40 nM; GI50 ([14]; BGC-823 cells): 40 nM; GI50 ([15]; A549 cells): 30 nM; GI50 [17]: 14 nM; GI50 ([18]; DU145 cells): 40 nM; GI50 ([19]; MCF-7 cells): 30 nM; GI50 ([20]; PANC-1 cells): 70 nM
